Test results from article PMC8287923, “A small-molecule chemical interface for molecular programs” (Nucleic Acids Research, 2021).

Assays:
Assay type in all cases: biochemical
[1] = target: T1, LacI (Escherichia coli, UniProt P03023); experiment: purified LacI with O1 operator DNA template (psTLacI); PEN-DNA fluorescent switch dose response ([…])
T1 construct: purified LacI with C-terminal His-tag (dimer)

[2] = target: T2, Tryptophan synthase subunit B (TrpB), EcB (Escherichia coli, UniProt P0A879, M149T/N171D); experiment: HPLC of overnight enzymatic conversion of indole and L-serine to L-trp
T2 construct: purified standalone TrpB variant (EcB)
T2 sequence (P0A879 2-397 M149T/N171D): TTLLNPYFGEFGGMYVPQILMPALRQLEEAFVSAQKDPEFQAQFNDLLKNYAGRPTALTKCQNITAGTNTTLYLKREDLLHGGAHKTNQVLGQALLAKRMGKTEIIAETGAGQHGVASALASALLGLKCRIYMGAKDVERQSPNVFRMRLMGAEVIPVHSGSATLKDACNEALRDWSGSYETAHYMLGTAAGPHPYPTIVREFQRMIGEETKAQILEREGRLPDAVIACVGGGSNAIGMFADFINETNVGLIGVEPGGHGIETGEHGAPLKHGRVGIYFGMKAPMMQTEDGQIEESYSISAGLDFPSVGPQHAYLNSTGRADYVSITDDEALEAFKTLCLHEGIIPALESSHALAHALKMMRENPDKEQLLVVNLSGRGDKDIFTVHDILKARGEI

[3] = target: TrpR (Escherichia coli, UniProt P0A881); experiment: purified TrpR with operator DNA template (psTTrpR); PEN-DNA fluorescent switch dose response, Hill fit

Row | SMILES | HPLC of overnight enzymatic conversion of indole and L-serine to L-trp [2] | further results
1 | CC(C)S[C@@H]1O[C@H](CO)[C@H](O)[C@H](O)[C@H]1O [IPTG, isopropyl β-d-1-thiogalactopyranoside] |  | Kd [1]: ~100 µM
2 | N[C@@H](CO)C(=O)O [L-serine] | Enzymatic activity of EcB L-trp synthesis was confirmed through HPLC evaluation. | 
3 | N[C@@H](Cc1c[nH]c2ccccc12)C(=O)O [L-trp] |  | Kd [3]: 24 µM
4 | c1ccc2[nH]ccc2c1 [indole] | Enzymatic activity of EcB L-trp synthesis was confirmed through HPLC evaluation. | 
